Experimental data from paper PMC11266668, “Unraveling the mechanism of small molecule induced activation of Staphylococcus aureus signal peptidase IB” (Communications Biology, 2024).
Where “and” joins values, the source holds several entries; their conditions need not be identical. Equal values may be shown once.

Tests used:
SpsB F158A mutant = biological target: T1, SpsB F158A mutant (Staphylococcus aureus, UniProt P0A070, F158A); assay: FRET-based signal peptidase assay with membrane-bound SpsB, F158A mutant; assay type: biochemical, S. aureus; conditions: for F158A A4 (normalized activity): replicates
T1 construct: recombinantly expressed full-length S. aureus SpsB (wt) or mutants; made in house; host or cells: E. coli BL21(DE3)pLysS, membrane fraction
T1 sequence (P0A070 1-191 F158A): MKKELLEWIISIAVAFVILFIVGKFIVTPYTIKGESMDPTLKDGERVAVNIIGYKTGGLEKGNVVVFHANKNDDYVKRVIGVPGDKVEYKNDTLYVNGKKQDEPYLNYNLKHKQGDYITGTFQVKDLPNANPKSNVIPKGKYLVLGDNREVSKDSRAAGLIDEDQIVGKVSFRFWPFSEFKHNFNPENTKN
Method: Cloning of full-length SpsB (fl-SpsB) was performed using the Invitrogen Gateway Technology in previous works by Le et al.. fl-SpsB was cloned into the destination vector pET-55-DEST (Novagen) and transformed into chemically competent E. coli BL21(DE3)pLysS cells (Promega) to prevent leaky protein overexpression. Plasmid DNA of wildtype SpsB pET-55-DEST-fl-SpsB was purified using a plasmid Miniprep Kit (peqGOLD Plasmid Miniprep Kit II, VWR Peqlab) according to the manufacturer’s instructions and used as template for all single point mutations (F67A, Y75A, F158A, Q165A). For double (F67A-Y75A, F67A-F158A, Y75A-F158A) or triple point (F67A-Y75A-F158A) mutations, the respective pET-55-DEST-fl-SpsB single point mutation or double point mutation plasmids were isolated and used as template for site-directed mutagenesis. Point mutation primers (Sigma) were designed based on the pET-55-dest-fl-SpsB construct according to the manufacturer’s instructions (Agilent). Primer sequences and order of point mutation introduction for all point mutations are listed in Supplementary Table S4. QuikChange site-directed mutagenesis PCR reactions were performed using either Phusion High-Fidelity DNA Polymerase (New England BioLabs, mutations: F67A, Q165A) or Q5 High-Fidelity DNA Polymerase (New England BioLabs, mutations: Y75A, F158A, F67A-Y75A, F67A-F158A, Y75A-F158A, F67A-Y75A-F158A) using the cycle listed below (Supplementary Table S5). The PCR mixture contained 10 µL GC buffer (NEB), 1 µL dNTP mix (10 mM), 1 µL forward primer (10 µM), 1 µL reverse primer (10 µM), 1 µL plasmid template (25 – 50 ng), 1.5 µL DMSO and 1 µL Phusion or Q5 High Fidelity DNA polymerase (NEB) and 33 µL ddH2O.
(§1) For preparation of E. coli membrane fractions harboring overexpressed S. aureus SpsB, E. coli BL21(DE3) pLysS cells harboring pET-55-DEST-fl-SpsB or respective mutant plasmids (F67A, Y75A, F158A, Q165A, F67A-Y75A, F67A-F158A, Y75A-F158A, F67A-Y75A-F158A) were grown in LB medium (supplemented with Ampicillin (100 µg/mL) and Chloramphenicol (34 µg/mL)) at 37°C (200 rpm) to OD600 ≈ 0.6 and protein overexpression was induced by the addition of isopropyl-1-thio-β-galactopyranoside (IPTG, 0.5 mM). After incubation (22 °C, 200 rpm, 3 h), cells were harvested by centrifugation (6000 × g, 4 °C, 10 min) and subsequently washed with PBS. The cell pellet was resuspended in 5 mL Tris-HCl buffer (50 mM, pH = 7.5) and lysed using a bead beater homogenizer (3 cycles: 5500 rpm for 45 s, 30 s cooling; Precellys Ceramic Kit CK01L, 7.0 mL tubes; Precellys 24 Homogenizer, Bertin Technologies). The lysate was centrifuged (12,000 × g, 4 °C, 10 min) to remove intact cells and debris. Membranes were collected from supernatant (39,000 × g, 4 °C, 75 min) and resuspended in ice-cold sodium phosphate buffer (50 mM, pH 7.5). Protein concentration was measured using the Pierce BCA Protein assay kit (Thermo Fisher Scientific, Pierce Biotechnology) and snap-frozen aliquots were stored at −80 °C.
(§2) Signal cleavage activities of recombinantly expressed full-length S. aureus SpsB (wt) or mutants (F67A, Y75A, F158A, Q165A, F67A-Y75A, F67A-F158A, Y75A-F158A, F67A-Y75A-F158A) in E. coli membranes were measured using a Förster Resonance Energy Transfer (FRET) assay as previously described[20],[36].
A synthetic peptide substrate based on SceD modified by 4-(4- dimethylaminophenylazo)benzoic (DABCYL) acid and 5-((2-aminoethyl)amino)-1- naphthalenesulfonic acid (EDANS) was used (DABCYL-[…]-EDANS, AnaSpec) as FRET substrate. Assays were performed with overexpressed wildtype SpsB (wt) or mutant (F67A, Y75A, F158A, Q165A, F67A-Y75A, F67A-F158A, Y75A-F158A, F67A-Y75A-F158A) in E. coli membranes. […]

wt SpsB = biological target: T2, wt SpsB (Staphylococcus aureus, UniProt P0A070); assay: FRET-based signal peptidase assay with membrane-bound SpsB (wt); assay type: biochemical, S. aureus; conditions: for wt A4 (normalized activity): replicates
T2 construct: recombinantly expressed full-length S. aureus SpsB (wt) or mutants; made in house; host or cells: E. coli BL21(DE3)pLysS, membrane fraction
Method: as §1, §2
A synthetic peptide substrate based on SceD modified by 4-(4- dimethylaminophenylazo)benzoic (DABCYL) acid and 5-((2-aminoethyl)amino)-1- naphthalenesulfonic acid (EDANS) was used (DABCYL-[…]-EDANS, AnaSpec) as FRET substrate. Assays were performed with overexpressed wildtype SpsB (wt) or mutant (F67A, Y75A, F158A, Q165A, F67A-Y75A, F67A-F158A, Y75A-F158A, F67A-Y75A-F158A) in E. coli membranes. As controls for background activity, respective E. coli membranes without IPTG induction were used (see Experimental procedure “Preparation of E. coli membrane (control) fractions. Membranes containing recombinant wildtype SpsB or mutant (50 µg/mL membrane concentration, 100 µL/well final volume, sodium phosphate buffer, 50 mM, pH 7.5, addition of detergent if indicated; final concentrations in buffer: 0.1% CHAPS, 0.001% NP-40 or 0.1% Tween) were pre-treated with PK150, Arylomycin A4 or DMSO as a control (final concentration 1%) at 37 °C for 5 min. After addition of FRET substrate (10 µM final substrate concentration; final DMF concentration from substrate stock 1%), fluorescence turnover was monitored by an Infinite™ M Nano Tecan 200Pro reader (340 nm excitation and 510 nm emission wavelengths, fluorescence top reading mode) at 37 °C for at least 2 h.
The assay was performed in technical triplicates for at least three biologically independent experiments (n ≥ 3). Significance of cleavage activity was determined via a two-tailed Students t-test for comparison of membranes treated with DMSO to PK150.

Structure (SMILES): CCC(C)CCCCCCCCC(=O)N(C)[C@H](CO)C(=O)N[C@H](C)C(=O)NCC(=O)N(C)C1C(=O)N[C@@H](C)C(=O)NC(C(=O)O)Cc2ccc(O)c(c2)-c2cc1ccc2O (some centres unmarked) [Arylomycin A4]
- activity observed (comment) (SpsB F158A mutant; >= 6.25 µM A4, F158A): no activity observed >= 6.25 µM A4
- F158A A4 (normalized activity) (SpsB F158A mutant; A4 0,39µM): 32.4463 and 49.9171 and 42.4421 and 52.4288
- F158A A4 (normalized activity) (SpsB F158A mutant; A4 0,78µM): 16.172 and 26.1385 and 26.2791 and 38.6178
- F158A A4 (normalized activity) (SpsB F158A mutant; A4 0,006µM): 114.109 and 96.9597 and 113.52
- F158A A4 (normalized activity) (SpsB F158A mutant; A4 0,012µM): 105.97 and 95.3486 and 96.5076
- F158A A4 (normalized activity) (SpsB F158A mutant; A4 0,024µM): 106.863 and 85.3442 and 101.455
- F158A A4 (normalized activity) (SpsB F158A mutant; A4 25uM): 1.625
- F158A A4 (normalized activity) (SpsB F158A mutant; A4 0,049µM): 49.0532 and 88.7486 and 79.7833 and 90.4487
- F158A A4 (normalized activity) (SpsB F158A mutant; A4 50uM): 0
- F158A A4 (normalized activity) (SpsB F158A mutant; A4 0,097µM): 43.0655 and 77.8288 and 72.5853 and 85.1042
- F158A A4 (normalized activity) (SpsB F158A mutant; A4 0,195µM): 35.3889 and 69.8941 and 59.8004 and 66.9013
- F158A A4 (normalized activity) (SpsB F158A mutant; A4 3,125µM): 9.135 and 8.856 and 10.0772 and 7.1542
- F158A A4 (normalized activity) (SpsB F158A mutant; A4 6,25µM): 5.328 and 0 (3×)
- F158A A4 (normalized activity) (SpsB F158A mutant; A4 12,5uM): 3.344
- F158A A4 (normalized activity) (SpsB F158A mutant; A4 1,5626µM): 13.3342 and 20.0153 and 23.1869 and 21.923
- IC50 (SpsB F158A mutant; F158A mutant): 229 nM
- activity observed (comment) (wt SpsB; >= 6.25 µM A4, wt): no activity observed >= 6.25 µM A4
- wt A4 (normalized activity) (wt SpsB; A4 0.195uM): 45.9128 and 47.6989 and 41.1571 and 57.7909
- wt A4 (normalized activity) (wt SpsB; A4 0.39uM): 29.005 and 27.5696 and 32.0075 and 46.11
- wt A4 (normalized activity) (wt SpsB; A4 0.78uM): 22.2989 and 17.0381 and 18.021 and 27.9093
- wt A4 (normalized activity) (wt SpsB; A4 1.5625uM): 12.8972 and 7.451 and 11.5505 and 15.4289
- wt A4 (normalized activity) (wt SpsB; A4 3.125uM): 11.0377 and 3.5503 and 8.876 and 8.105
- wt A4 (normalized activity) (wt SpsB; A4 0,006uM): 95.8032 and 76.7916 and 108.843
- wt A4 (normalized activity) (wt SpsB; A4 6.25uM): 6.541 and -3.189 and 3.474 and 4.294
- wt A4 (normalized activity) (wt SpsB; A4 0,012uM): 85.1742 and 80.5391 and 106.049
- wt A4 (normalized activity) (wt SpsB; A4 12.5uM): 6.292
- wt A4 (normalized activity) (wt SpsB; A4 0,024uM): 82.0951 and 107.605 and 99.2001
- wt A4 (normalized activity) (wt SpsB; A4 25uM): 5.273
- wt A4 (normalized activity) (wt SpsB; A4 0,048uM): 88.089 and 72.2661 and 88.1109
- wt A4 (normalized activity) (wt SpsB; A4 50uM): 0
- wt A4 (normalized activity) (wt SpsB; A4 0,097uM): 68.2227 and 67.6529 and 63.3355 and 86.9713
- IC50 (wt SpsB; wt): 210 nM

Structure (SMILES): C[S+](C)[O-] [DMSO]
- wt DMSO + 0.001% NP-40 norm. value (wt SpsB; 0.001% NP-40, normalized to DMSO + 0.001% NP-40 (100), single biological replicates): 144.811 and 130.505
- wt DMSO + 0.01% Tween norm. value (wt SpsB; 0.01% Tween, normalized to DMSO + 0.01% Tween (100), single biological replicates): 133.237 and 138.302
- wt DMSO + 0.1% Chaps norm. value (wt SpsB; 0.1% Chaps, normalized to DMSO + 0.1% Chaps (100), single biological replicates): 187.838 and 176.739
